Source: patent publication US9796742B2, “Kinase inhibitors” (Respivert Limited, priority 2012, dated 2017)
Like-named read-outs stand apart in the source and are kept apart here.

Tests used:
p38 MAPKα = p38 MAPKα (Homo sapiens (Human), UniProt Q16539); test: p38 MAPKα enzyme inhibition (FRET, Z-LYTE; Method 2); assay type: biochemical
Method in brief: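 p38 MAPKα (2.5 μL of 200 ng/mL stock) preincubated 2 h at RT with compound, then kinase reaction 1 h at RT with readout via MAPKAP-K2 activation using a Z-LYTE FRET peptide. Protease development 1 h; coumarin/fluorescein emission ratio gives phosphorylation. % inhibition versus uninhibited control; IC50 from concentration-response curve.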

PBMCs [1] = test: LPS-induced TNFα/IL-8 release in PBMC cells; assay type: cell-based; settings: Homo sapiens, LPS-stimulated PBMCs
Method in brief: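 Cytokines (TNFα, IL-8) in supernatants were quantified by sandwich ELISA after a 24 h challenge with 1 ng/mL E. coli LPS at 37° C, 5% CO2. Healthy-donor PBMCs had been exposed to compound for 2 h beforehand. IC50 values were fitted from the concentration-response curves.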

[2] = test system: intestinal mucosa biopsies from ulcerative colitis patients; test: Human biopsy assay (ex-vivo cytokine release); assay type: cell-based
Protocol: Intestinal mucosa biopsies are obtained from the inflamed regions of the colon of IBD patients. The biopsy material is cut into small pieces (2-3 mm) and placed on steel grids in an organ culture chamber at 37° C. in a 5% CO2/95% O2 atmosphere in serum-free media. DMSO control or test compounds at the desired concentration are added to the tissue and incubated for 24 hr in the organ culture chamber. The supernatant is harvested for determination of IL-6, IL-8, IL-1β and TNFα levels by R&D ELISA. Percentage inhibition of cytokine release by the test compounds is calculated relative to the cytokine release determined for the DMSO control (100%).

Syk = Syk (Homo sapiens (Human), UniProt P43405); test: Syk enzyme inhibition (FRET, Z-LYTE); assay type: biochemical
Method in brief: (§1)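 Z-LYTE FRET peptide assay with enzyme preincubated with compound for 2 h at RT, then 1 h kinase reaction and 1 h protease development. ATP solutions were 800 μM for c-Src and 60 μM for Syk. Inhibition was taken from the coumarin/fluorescein emission ratio, and IC50 from concentration-response curves.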

PBMCs [3] = test: IL-2 and IFN gamma release in CD3/CD28 stimulated PBMC cells; assay type: cell-based; settings: Homo sapiens
Method in brief: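 They were cultured with compound for 3 days. IL-2 and IFN-γ in supernatants were quantified by sandwich ELISA, and IC50 was derived from the dose-response curve.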

d-U937 cells = test: LPS-induced TNFα/IL-8 release in d-U937 cells; assay type: cell-based; settings: Homo sapiens, dU937, LPS-stimulated d-U937 cells
Protocol: U937 cells, a human monocytic cell line, are differentiated to macrophage-type cells by incubation with phorbol myristate acetate (PMA; 100 ng/mL) for 48 to 72 hr. Cells are pre-incubated with final concentrations of test compound for 2 hr and are then stimulated with 0.1 μg/mL of LPS (from E. Coli: O111:B4, Sigma) for 4 hr. The supernatant is collected for determination of TNFα and IL-8 concentrations by sandwich ELISA (Duo-set, R&D systems). The inhibition of TNFα production is calculated as a percentage of that achieved by 10 μg/mL of BIRB796 at each concentration of test compound by comparison against vehicle control. The relative 50% effective concentration (REC50) is determined from the resultant concentration-response curve. The inhibition of IL-8 production is calculated at each concentration of test compound by comparison with vehicle control. The 50% inhibitory concentration (IC50) is determined from the resultant concentration-response curve.

c-Src = c-Src (Homo sapiens (Human), UniProt P12931); test: c-Src enzyme inhibition (FRET, Z-LYTE); assay type: biochemical
Method in brief: as §1

[4] = 1 μg/ml, 24 hours, DMSO control 100%

p38 MAPKα, sequence (Q16539 whole entry): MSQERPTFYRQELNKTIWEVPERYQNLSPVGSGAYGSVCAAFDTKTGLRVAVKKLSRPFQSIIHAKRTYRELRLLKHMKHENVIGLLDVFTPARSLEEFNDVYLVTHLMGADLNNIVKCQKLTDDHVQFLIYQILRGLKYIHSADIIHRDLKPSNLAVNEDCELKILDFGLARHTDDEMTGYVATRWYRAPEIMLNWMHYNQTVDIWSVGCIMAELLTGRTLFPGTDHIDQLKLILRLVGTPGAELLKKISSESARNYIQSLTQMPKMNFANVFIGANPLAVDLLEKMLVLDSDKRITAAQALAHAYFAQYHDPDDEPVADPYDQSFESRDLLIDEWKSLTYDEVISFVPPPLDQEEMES
c-Src, sequence (P12931 whole entry, looked up): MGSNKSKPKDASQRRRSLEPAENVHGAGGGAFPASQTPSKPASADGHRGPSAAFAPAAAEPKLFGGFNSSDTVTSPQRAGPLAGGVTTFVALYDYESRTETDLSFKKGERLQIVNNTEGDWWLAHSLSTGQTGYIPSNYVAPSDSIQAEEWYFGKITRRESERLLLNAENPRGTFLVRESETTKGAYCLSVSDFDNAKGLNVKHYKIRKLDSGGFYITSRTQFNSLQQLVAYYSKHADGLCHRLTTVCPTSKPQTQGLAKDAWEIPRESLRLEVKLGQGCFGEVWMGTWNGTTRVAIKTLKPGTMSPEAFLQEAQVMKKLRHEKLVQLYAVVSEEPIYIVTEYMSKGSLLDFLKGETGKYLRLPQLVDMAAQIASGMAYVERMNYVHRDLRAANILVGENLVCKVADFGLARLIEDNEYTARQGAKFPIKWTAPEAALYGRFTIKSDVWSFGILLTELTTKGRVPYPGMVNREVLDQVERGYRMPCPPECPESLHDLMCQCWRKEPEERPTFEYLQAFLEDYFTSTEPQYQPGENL

**Q.** `COCCOCCOCCOc1cc(Nc2nccc(Oc3ccc(NC(=O)Nc4cc(C(C)(C)C)nn4-c4cccc(CP(C)(C)=O)c4)c4ccccc34)n2)cc(OC)c1` [Example 60, 1-(3-(tert-Butyl)-1-(3-((dimethylphosphoryl)methyl)phenyl)-1H-pyrazol-5-yl)-3-(4-((2-((3-methoxy-5-(2-(2-(2-methoxyethoxy)ethoxy)ethoxy)phenyl)amino)pyrimidin-4-yl)oxy)-naphthalen-1-yl)urea] was tested. Which IC50 (p38 MAPKα) did it give?
**A.** 71 nM

**Q.** And the IC50 (PBMCs [1]; IL-8, read-out: IC50 Values for Inhibition of Cytokine Release, PBMCs IL-8)?
**A.** 0.9 nM

**Q.** And the IC50 (PBMCs [1]; TNFα, read-out: IC50 Values for Inhibition of Cytokine Release, PBMCs TNFα)?
**A.** 0.6 nM

**Q.** And the “cytokine (IL-1b, IL-6 and IL-8) release compared to the DMSO control” value ([2]; 1 μg/mL, 24 hours, biopsies from ulcerative colitis patients)?
**A.** significantly inhibited

**Q.** What about the “IL-1b release from biopsies of UC patients” value [2, 4] of the same compound?
**A.** 1 ± 2%

**Q.** What about the “IL-6 release from biopsies of UC patients” value [2, 4] of the same compound?
**A.** 0 ± 0%

**Q.** And the “IL-8 release from biopsies of UC patients” value [2, 4]?
**A.** 2 ± 4%

**Q.** What about the “anti-inflammatory effects in biopsies from ulcerative colitis (UC) patients” value ([2]; ex-vivo human biopsy model) of the same compound?
**A.** significant anti-inflammatory effects

**Q.** What about the IC50 (Syk) of the same compound?
**A.** 8 nM

**Q.** What about the IC50 (PBMCs [3]; IFNγ, read-out: IC50 Values for Inhibition of Cytokine Release, PBMCs IFNγ) of the same compound?
**A.** 1.9 nM

**Q.** What about the IC50 (PBMCs [3]; IL-2, read-out: IC50 Values for Inhibition of Cytokine Release, PBMCs IL-2) of the same compound?
**A.** 16 nM

**Q.** What about the IC50 (d-U937 cells; IL-8, read-out: IC50 Values for Inhibition of Cytokine Release, dU937 cells IL-8) of the same compound?
**A.** 0.4 nM

**Q.** And the IC50 (d-U937 cells; TNFα (REC50 relative to BIRB796 per method), read-out: IC50 Values for Inhibition of Cytokine Release, dU937 cells TNFα)?
**A.** 0.2 nM

**Q.** What about the IC50 (c-Src) of the same compound?
**A.** 2 nM
